The record followed here is ChEMBL document CHEMBL1153147, “Solid-phase synthesis and antibiotic activities of cyclodecapeptides on the scaffold of naturally occurring Laterocidin” (2010).

Holding throughout (assay type): functional
One assay has as its system Bacillus subtilis. The assay can be described thus: Antibacterial activity against Bacillus subtilis ATCC 82 after 20 hrs by broth dilution method. The following applies: ATCC 82, 20 h. For orientation: Broth dilution looks for growth in wells or tubes with falling amounts of substance.
Assay [1] concerns Staphylococcus aureus. As to the kind of experiment: Antibacterial activity against Staphylococcus aureus ATCC 29213 after 20 hrs by broth dilution method. The following applies: ATCC 29213, 20 h.
In assay [2] the test system is Staphylococcus aureus. As to the kind of experiment: Antibacterial activity against methicillin-resistant Staphylococcus aureus clinical isolate after 20 hrs by broth dilution method.
Assay [3] concerns Escherichia coli. As to the kind of experiment: Antibacterial activity against Escherichia coli ATCC 25922 after 20 hrs by broth dilution method. The following applies: ATCC 25922, 20 h.
The next assay relates to Pseudomonas aeruginosa. As to the kind of experiment: Antibacterial activity against Pseudomonas aeruginosa ATCC 27853 after 20 hrs by broth dilution method. The following applies: ATCC 27853, 20 h.
The subject of assay [4] is Escherichia coli. As to the kind of experiment: Antibacterial activity against extended spectrum beta lactamase-producing Escherichia coli clinical isolate after 20 hrs by broth dilution method.
Assay [5] deals with Escherichia coli. The assay can be described thus: Antibacterial activity against drug-resistant Escherichia coli clinical isolate after 20 hrs by broth dilution method.

SMILES strings stand for the structures. ≈ marks a conversion by molar mass, not a printed value.

For the compound `CC(C)C[C@@H]1NC(=O)[C@H](CC(N)=O)NC(=O)[C@H](CC(N)=O)NC(=O)[C@@H](Cc2ccccc2)NC(=O)[C@H](Cc2ccccc2)NC(=O)[C@@H]2CCCN2C(=O)[C@@H](Cc2ccc(O)cc2)NC(=O)[C@H](CC(C)C)NC(=O)[C@H](CCCN)NC(=O)[C@H](C(C)C)NC1=O`, the minimal inhibitory concentration (MIC) – broadly, the smallest concentration in the dilution series that meets the test's criterion for growth inhibition – with Bacillus subtilis was 1 µg/mL (≈ 0.818 µM); against Staphylococcus aureus [1], 2 µg/mL (≈ 1.64 µM); against Staphylococcus aureus [2] it was 4 µg/mL (≈ 3.27 µM); against Escherichia coli [3] it was 64 µg/mL (≈ 52.4 µM); with Pseudomonas aeruginosa, > 256 µg/mL; with Escherichia coli [4], 256 µg/mL (≈ 209 µM). In addition, in the assay with Escherichia coli [5], it took 64 µg/mL (≈ 52.4 µM) to inhibit growth (MIC).
`CC(C)C[C@@H]1NC(=O)[C@H](CC(N)=O)NC(=O)[C@H](CC(N)=O)NC(=O)[C@@H](Cc2ccccc2)NC(=O)[C@H](Cc2ccc(O)cc2)NC(=O)[C@@H]2CCCN2C(=O)[C@@H](Cc2ccccc2)NC(=O)[C@H](CC(C)C)NC(=O)[C@H](CCCN)NC(=O)[C@H](C(C)C)NC1=O`: the MIC against Bacillus subtilis is 0.5 µg/mL (≈ 0.409 µM); against Staphylococcus aureus [1], 1 µg/mL (≈ 0.818 µM); in the assay with Staphylococcus aureus [2], 1 µg/mL (≈ 0.818 µM); with Escherichia coli [3], > 256 µg/mL; in the assay with Pseudomonas aeruginosa, > 256 µg/mL; against Escherichia coli [4] it was 64 µg/mL (≈ 52.4 µM). Further, in the assay on Escherichia coli [5], it took 16 µg/mL (≈ 13.1 µM) to inhibit growth (MIC).
For the compound `CC(C)C[C@@H]1NC(=O)[C@H](CCCN)NC(=O)[C@H](C(C)C)NC(=O)[C@H](CC(C)C)NC(=O)[C@H](CC(N)=O)NC(=O)[C@H](CC(N)=O)NC(=O)[C@@H](Cc2ccccc2)NC(=O)[C@H](Cc2ccc(O)cc2)NC(=O)[C@@H]2CCCN2C(=O)[C@H](Cc2ccccc2)NC1=O`, the minimum inhibitory concentration (MIC) with Bacillus subtilis is 32 µg/mL (≈ 26.2 µM); in the assay on Staphylococcus aureus [1] it was 128 µg/mL (≈ 105 µM); against Staphylococcus aureus [2], 256 µg/mL (≈ 209 µM); in the assay on Escherichia coli [3], > 256 µg/mL; against Pseudomonas aeruginosa it was > 256 µg/mL; in the assay with Escherichia coli [4], > 256 µg/mL.
Regarding `CC(C)C[C@@H]1NC(=O)[C@H](CCCN)NC(=O)[C@H](C(C)C)NC(=O)[C@H](CC(C)C)NC(=O)[C@H](CC(N)=O)NC(=O)[C@H](CC(N)=O)NC(=O)[C@H](Cc2ccccc2)NC(=O)[C@H](Cc2ccc(O)cc2)NC(=O)[C@@H]2CCCN2C(=O)[C@H](Cc2ccccc2)NC1=O`, the minimum inhibitory concentration (MIC) in the assay with Bacillus subtilis was 64 µg/mL (≈ 52.4 µM); against Staphylococcus aureus [1], 64 µg/mL (≈ 52.4 µM); against Staphylococcus aureus [2], 128 µg/mL (≈ 105 µM); in the assay with Escherichia coli [3], > 256 µg/mL; against Pseudomonas aeruginosa, > 256 µg/mL; against Escherichia coli [4], > 256 µg/mL.
As for `CC(C)C[C@@H]1NC(=O)[C@H](CC(N)=O)NC(=O)[C@H](CC(N)=O)NC(=O)[C@H](Cc2ccccc2)NC(=O)[C@H](Cc2ccc(O)cc2)NC(=O)[C@@H]2CCCN2C(=O)[C@@H](Cc2ccccc2)NC(=O)[C@H](CC(C)C)NC(=O)[C@H](CCCN)NC(=O)[C@H](C(C)C)NC1=O`, the MIC in the assay on Bacillus subtilis is 32 µg/mL (≈ 26.2 µM); in the assay with Staphylococcus aureus [1], 32 µg/mL (≈ 26.2 µM); against Staphylococcus aureus [2] it was 16 µg/mL (≈ 13.1 µM); with Escherichia coli [3] it was > 256 µg/mL; in the assay with Pseudomonas aeruginosa it was > 256 µg/mL; with Escherichia coli [4], > 256 µg/mL.
Turning to `CC(C)C[C@@H]1NC(=O)[C@H](CC(N)=O)NC(=O)[C@H](CC(N)=O)NC(=O)[C@@H](Cc2ccccc2)NC(=O)[C@H](Cc2ccccc2)NC(=O)[C@@H]2CCCN2C(=O)[C@@H](Cc2ccccc2)NC(=O)[C@H](CC(C)C)NC(=O)[C@H](CCCN)NC(=O)[C@H](C(C)C)NC1=O`, the MIC against Bacillus subtilis was 2 µg/mL (≈ 1.66 µM); with Staphylococcus aureus [1], 2 µg/mL (≈ 1.66 µM); against Staphylococcus aureus [2], 4 µg/mL (≈ 3.32 µM); in the assay on Escherichia coli [3], > 256 µg/mL; in the assay on Pseudomonas aeruginosa it was > 256 µg/mL; against Escherichia coli [4] it was 128 µg/mL (≈ 106 µM). In the assay with Escherichia coli [5], it took 128 µg/mL (≈ 106 µM) to inhibit growth (MIC).
For the compound `CC(C)C[C@@H]1NC(=O)[C@H](CC(=O)O)NC(=O)[C@H](CC(N)=O)NC(=O)[C@@H](Cc2ccccc2)NC(=O)[C@H](Cc2ccccc2)NC(=O)[C@@H]2CCCN2C(=O)[C@@H](Cc2ccc(O)cc2)NC(=O)[C@H](CC(C)C)NC(=O)[C@H](CCCN)NC(=O)[C@H](C(C)C)NC1=O` [LATEROCIDIN], the MIC with Bacillus subtilis was 16 µg/mL (≈ 13.1 µM); against Staphylococcus aureus [1], 32 µg/mL (≈ 26.2 µM); in the assay with Staphylococcus aureus [2] it was 128 µg/mL (≈ 105 µM); in the assay on Escherichia coli [3] it was > 256 µg/mL; in the assay on Pseudomonas aeruginosa, > 256 µg/mL; against Escherichia coli [4] it was > 256 µg/mL.
